Measured values reported in PMC4848466, “Insights into the activation mechanism of class I HDAC complexes by inositol phosphates” (Nature Communications, 2016).
“Also recorded” adds a separate entry of the source. Non-standard residues stand in square brackets, D forms with d. Residues, ends and D or L forms follow the SMILES beside them. *: point of attachment. Asu = N[C@@H](CCCCCC(=O)O)C(=O)O; NHOH = ON*

Columns and labels:
[1] = molecular target: T1, HDAC3:SMRT complex (Homo sapiens, UniProt O15379+Q9Y618); test: Activation of HDAC3:SMRT deacetylase activity by inositol phosphates (BOC-Lys-AMC assay); format: biochemical; settings: for Kd / HDAC3 activation relative to maximal Ins(1,4,5,6)P4-stimulated activity: BOC-Lys-AMC assay; for Kd: one-site binding fit of HDAC activity vs inositol phosphate concentration, read-out: Kdapp (apparent Kd from activation titration); for HDAC3 activation relative to maximal Ins(1,4,5,6)P4-stimulated activity: titration / maximal activation; for HDAC activity as percentage of maximal Ins(1,4,5,6)P4 activity: compound tested at 200 μM
T1 construct: Full-length HDAC3, and residues 350–480 of SMRT were cloned into pcDNA3 vectors; residues 350–480 of SMRT were cloned into pcDNA3 vectors; FLAG tag with TEV protease cleavage site (cleaved yes); made in house; host or cells: HEK293F cells (co-transfection, pcDNA3)
Protocol: (§1) To understand the stereochemical basis underlying the activation of HDAC3 by inositol phosphates we investigated the ability of a range of inositol phosphates and derivatives to enhance the activity of HDAC3 in deacetylase assays. To achieve this we used an assay based on the complex of HDAC3 with an extended SMRT construct which is stable in the absence of inositol phosphate.
(§2) HDAC activity of the protein complex was measured using an HDAC assay with a BOC-Lys-AMC substrate. 50 nM HDAC3:SMRT or 50 nM HDAC1:MTA1 was incubated with 100 μM BOC-Lys-AMC substrate in a final volume of 50 μl buffer A (50 mM Tris pH 7.5, 50 mM NaCl, 5% Glycerol), in a black 96-well plate for 30 min at 37 °C.
(§3) To test the ability of inositol phosphates and derivatives to activate the complex, 50 nM HDAC3:SMRT (which had been stripped of its endogenous co-purified inositol phosphate) or 50 nM HDAC1:MTA1 was incubated with inositol phosphate or analogue for 30 min at 37 °C before the HDAC activity was measured. All measurements were performed in triplicate and data analysed using GraphPad Prism (version 6.0, GraphPad Software, Inc).

[2] = molecular target: T2, HDAC1:MTA1 complex (Homo sapiens, UniProt Q13330+Q13547); test: Activation of HDAC1:MTA1 deacetylase activity by inositol phosphates (BOC-Lys-AMC assay); format: biochemical; settings: for Kd: read-out: Kdapp (apparent Kd from activation titration)
T2 construct: Full-length HDAC1 and residues 162–354 of MTA1 were cloned into pcDNA3 vectors; residues 162–354 of MTA1 were cloned into pcDNA3 vectors; FLAG tag with TEV protease cleavage site (cleaved yes); made in house; host or cells: HEK293F cells (co-transfection, pcDNA3)
Protocol: as §2, §3

[3] = molecular target: T3, HDAC1:MTA1 (Homo sapiens, UniProt Q13330+Q13547); test: Inhibition of HDAC1:MTA1 by peptide-based inhibitor; format: biochemical
T3 construct: Full-length HDAC1 and residues 162–354 of MTA1 were cloned into pcDNA3 vectors; residues 162–354 of MTA1 were cloned into pcDNA3 vectors; FLAG tag with TEV protease cleavage site (cleaved yes); made in house; host or cells: HEK293F cells (co-transfection, pcDNA3)

[4] = molecular target: T4, HDAC3:SMRT (Homo sapiens, UniProt O15379+Q9Y618); test: Fluorescence anisotropy direct binding of 2-FAM-Ins(1,3,4,5,6)P5; settings: inhibitor bound at the active site
Protocol: When required, assays were performed in the presence of HDAC inhibitor (20 mM final concentration). Plates were mixed by shaking for 1 s, and measurements taken using a Victor X5 plate reader (Perkin Elmer) at room temperature with an excitation wavelength of 480 nm and an emission wavelength of 535 nm. Experiments were performed in triplicate and data were analysed using GraphPad Prism (version 6.0), Kd values were calculated by nonlinear curve fitting using a one-site binding (hyperbola) model (Y=Bmax*X/(Kd+X).

[5] = molecular target: T4, HDAC3:SMRT; test: Fluorescence anisotropy displacement of 2-FAM-Ins(1,3,4,5,6)P5; format: binding; set-up: Full-length HDAC3, and residues 350–480 of SMRT were cloned into pcDNA3 vectors; residues 350–480 of SMRT were cloned into pcDNA3 vectors; FLAG tag with TEV protease cleavage site (cleaved yes); made in house; host or cells: HEK293F cells (co-transfection, pcDNA3); settings: fluorescence anisotropy competition; for IC50: read-out: IC50 displacement of 2-FAM-Ins(1,3,4,5,6)P5
Protocol: The concentration of protein was determined as that which gave 100% bound in the protein titration experiments. The data were analysed and IC50 values calculated using GraphPad Prism (version 6.0).

[6] = molecular target: T5, HDAC3:SMRT complex (Homo sapiens, UniProt O15379); test: Activation of HDAC3:SMRT deacetylase activity by inositol phosphates (BOC-Lys-AMC assay); format: biochemical; settings: BOC-Lys-AMC assay; one-site binding fit of HDAC activity vs inositol phosphate concentration; read-out: Kdapp (apparent Kd from activation titration)
T5 construct: Full-length HDAC3, and residues 350–480 of SMRT were cloned into pcDNA3 vectors; residues 350–480 of SMRT were cloned into pcDNA3 vectors; FLAG tag with TEV protease cleavage site (cleaved yes); made in house; host or cells: HEK293F cells (co-transfection, pcDNA3)
Protocol: as §1, §2, §3

[7] = molecular target: T3, HDAC1:MTA1; test: Michaelis-Menten enzyme kinetics on Caliper EZ Reader with H4K16ac peptide; format: biochemical; settings: H4 12–18K16ac peptide; in the presence of the inositol phosphate
Source text: (§4) To explore further the differences between the two complexes we established a more physiological, real-time kinetic assay using substrates based on the tails of histones H4 and H3. The peptides tested were; H4 12–18(K16ac), H3 23–29(K27ac) and H3 6–12(K9ac). […] HDAC3:SMRT is most catalytically active against H3 23–29(K27ac) (Supplementary Fig. 7), whereas HDAC1:MTA1 is most catalytically active against H4 12–18(K16ac) (Fig. 4d). In both cases an approximate 3-fold greater kcat is observed for the preferred versus non-preferred substrate, in the absence of inositol phosphate. […] The net effect of both inositol phosphates tested was between a two and fivefold increase in catalytic efficiency (kcat/Km) (Fig. 4c,d, Supplementary Fig. 7).
(§5) Michaelis–Menten kinetics were determined using a HDAC assay on the Caliper EZ Reader II system (Caliper Life Sciences, http://www.caliperls.com). To assess the effect of inositol phosphate, 20 nM HDAC3:SMRT or 80 nM HDAC1:MTA1 were pre-mixed with InsP6 before dilution and addition of fluorescein-labelled H4K16Ac substrate. Reactions were carried out in duplicate in 30 μl reaction volumes, performed at room temperature in 50 mM Tris pH 7.5, 50 mM NaCl, 5% glycerol. Data was analysed using GraphPad Prism (version 6.0).

[8] = molecular target: T4, HDAC3:SMRT; test: as above; format: biochemical; set-up: Full-length HDAC3, and residues 350–480 of SMRT were cloned into pcDNA3 vectors; residues 350–480 of SMRT were cloned into pcDNA3 vectors; FLAG tag with TEV protease cleavage site (cleaved yes); made in house; host or cells: HEK293F cells (co-transfection, pcDNA3); settings: H4 12–18K16ac peptide; in the presence of the inositol phosphate
Source text: as §4, §5

[9] = molecular target: HDAC1:MTA1 complex (UniProt Q13547)
[10] = molecular target: T6, HDAC1 (UniProt Q13547 1-482); test: crystal structure; HDAC1:MTA1 (co-expressed and co-purified, 5 mg/ml) co-crystallised with H4K16Hx at a 1:2 molar ratio; sitting drop, 20 °C, 0.1 M HEPES pH 7.5, 2 M ammonium sulfate, 5% PEG400; crystals frozen with 225 mM InsP6; 3.3 Å; settings: both partners purified
T6 construct: Histone deacetylase 1 (HDAC1), full length, cloned into pcDNA3; Only handled as the co-expressed, co-purified complex with MTA1 162-354; also called histone deacetylase 1; source: HEK293F, co-transfected with the MTA1 construct, purified as the complex (FLAG resin, TEV elution, gel filtration)
T6 sequence (Q13547 whole entry): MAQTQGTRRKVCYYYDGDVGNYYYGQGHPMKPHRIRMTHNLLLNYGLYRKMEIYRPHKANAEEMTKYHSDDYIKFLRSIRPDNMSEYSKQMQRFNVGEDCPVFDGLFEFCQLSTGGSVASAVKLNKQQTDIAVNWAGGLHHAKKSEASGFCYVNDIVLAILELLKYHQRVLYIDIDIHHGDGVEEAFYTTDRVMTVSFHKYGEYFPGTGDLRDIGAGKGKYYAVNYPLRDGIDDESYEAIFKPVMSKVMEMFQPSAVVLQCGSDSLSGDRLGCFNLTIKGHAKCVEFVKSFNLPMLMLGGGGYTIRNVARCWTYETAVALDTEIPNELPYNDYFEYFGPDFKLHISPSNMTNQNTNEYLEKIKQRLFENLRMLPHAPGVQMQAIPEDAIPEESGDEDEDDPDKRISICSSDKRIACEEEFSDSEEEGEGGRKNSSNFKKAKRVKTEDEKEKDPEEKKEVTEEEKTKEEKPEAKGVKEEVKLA

T2 sequence (Q13547 whole entry, one chain of several, the tested form may be a part): as the sequence (Q13547 whole entry) above
T1 sequence (O15379 whole entry, the tested form may be a part): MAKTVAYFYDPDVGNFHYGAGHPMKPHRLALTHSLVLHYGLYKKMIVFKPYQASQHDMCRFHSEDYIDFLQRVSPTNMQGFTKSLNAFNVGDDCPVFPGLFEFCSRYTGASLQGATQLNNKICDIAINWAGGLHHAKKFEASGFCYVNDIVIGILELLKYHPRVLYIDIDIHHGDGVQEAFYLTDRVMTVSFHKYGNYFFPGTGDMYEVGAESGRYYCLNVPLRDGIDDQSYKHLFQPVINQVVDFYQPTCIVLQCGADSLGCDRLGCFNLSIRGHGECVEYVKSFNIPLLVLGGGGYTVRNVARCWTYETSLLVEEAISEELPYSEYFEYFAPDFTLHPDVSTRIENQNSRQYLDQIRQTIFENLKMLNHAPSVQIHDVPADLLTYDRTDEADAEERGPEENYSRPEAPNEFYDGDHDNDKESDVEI
T1 sequence (Q9Y618 350-480): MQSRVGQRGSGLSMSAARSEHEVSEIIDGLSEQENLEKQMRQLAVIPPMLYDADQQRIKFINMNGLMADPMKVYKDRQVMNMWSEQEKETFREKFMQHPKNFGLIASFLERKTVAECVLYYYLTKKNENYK
T4 sequence (O15379 whole entry, the tested form may be a part): as the sequence (O15379 whole entry, the tested form may be a part) above
T4 sequence (Q9Y618 350-480): as the sequence (Q9Y618 350-480) above
T3 sequence (Q13547 whole entry, one chain of several, the tested form may be a part): as the sequence (Q13547 whole entry) above
Sequence of HDAC1:MTA1 complex (UniProt Q13547) (Q13547 whole entry, one chain of several): as the sequence (Q13547 whole entry) above
T5 sequence (O15379 whole entry, the tested form may be a part): as the sequence (O15379 whole entry, the tested form may be a part) above
T5 sequence (Q9Y618 350-480, further chain): as the sequence (Q9Y618 350-480) above

## O=P(O)(O)OC1[C@@H](OP(=O)(O)O)[C@H](OP(=O)(O)O)C(O)[C@H](OP(=O)(O)O)[C@H]1OP(=O)(O)O (some centres unmarked)
[1]
  Kd: 5 µM
  HDAC3 activation relative to maximal Ins(1,4,5,6)P4-stimulated activity: same degree as Ins(1,4,5,6)P4
[1]; ratio of apparent Kd values
  increase in apparent affinity compared with Ins(1,4,5,6)P4: twofold
[2]
  activation of HDAC1:MTA1 complex: can be activated
  Kd: 2.6 µM

## O=C(CP(=O)(O)O)O[C@@H]1[C@@H](OP(=O)(O)O)[C@H](OP(=O)(O)O)[C@H](O)[C@H](OP(=O)(O)O)[C@H]1OP(=O)(O)O [2-OH-5-PA-InsP4]
[1]
  HDAC activity as percentage of maximal Ins(1,4,5,6)P4 activity: completely inert

## O=P(O)(O)O[C@@H]1[C@@H](OP(=O)(O)OP(=O)(O)O)[C@H](OP(=O)(O)O)[C@@H](OP(=O)(O)O)[C@@H](O)[C@H]1OP(=O)(O)O [5-PP-InsP4]
[1]
  HDAC activity as percentage of maximal Ins(1,4,5,6)P4 activity: ~60%

## CC(=O)N[C@@H](CCCCN)C(=O)NCC(=O)NCC(=O)N[C@@H](C)C(=O)N[C@@H](CCCCCC(=O)NO)C(=O)N[C@@H](CCCNC(=N)N)C(=O)N[C@@H](Cc1c[nH]cn1)C(N)=O [H4K16Hx] (Ac-KGGA[Asu](NHOH)RH-NH2)
[3]
  IC50: 0.336 µM
[4]
  enhancement of the binding of 2-FAM-Ins(1,3,4,5,6)P5 to the allosteric site by inhibitor: more modest effect

## O=P(O)(O)OC1[C@H](O)[C@H](OP(=O)(O)O)C(OP(=O)(O)O)[C@H](OP(=O)(O)O)[C@H]1O (some centres unmarked) [Ins(1,3,4,5)P4]
[1]
  Kd: 13 µM
  HDAC3 activation relative to maximal Ins(1,4,5,6)P4-stimulated activity: greater than 75%

## O=P(O)(O)O[C@@H]1C(O)[C@H](OP(=O)(O)O)[C@@H](OP(=O)(O)O)C(O)[C@H]1OP(=O)(O)O (some centres unmarked) [Ins(1,3,4,6)P4]
[1]
  HDAC3 activation relative to maximal Ins(1,4,5,6)P4-stimulated activity: unable to activate HDAC3; also recorded: do not activate the complex
[5]
  IC50: 1.5 µM

## O=P(O)(O)OC1C(O)C(OP(=O)(O)O)C(OP(=O)(O)O)C(OP(=O)(O)O)C1O (centres unmarked) [Ins(1,3,5,6)P4]
[1]
  Kd: 30 µM

## O=P(O)(O)O[C@@H]1[C@H](O)[C@H](O)[C@@H](OP(=O)(O)O)[C@H](OP(=O)(O)O)[C@H]1O [Ins(1,4,5)P3]
[1]
  HDAC3 activation relative to maximal Ins(1,4,5,6)P4-stimulated activity: completely unable to activate HDAC3; also recorded: completely inert; also recorded: do not activate the complex
[5]
  IC50: 19 µM

## O=P(O)(O)O[C@@H]1[C@@H](OP(=O)(O)O)[C@H](OP(=O)(O)O)[C@@H](O)[C@@H](O)[C@H]1OP(=O)(O)O [Ins(1,4,5,6)P4, inositol 1,4,5,6-tetrakisphosphate]
[6]
  Kd: 10 µM
[2]
  Kd: 4.7 µM
[7]
  kcat: 0.90 s⁻¹
[8]
  kcat: 2.72 s⁻¹

## O=P(O)(O)O[C@H]1[C@H](O)[C@H](O)[C@H](OP(=O)(O)O)[C@@H](OP(=O)(O)O)[C@@H]1O [Ins(1,4,6)P3]
[1]
  HDAC3 activation relative to maximal Ins(1,4,5,6)P4-stimulated activity: completely inert

## O=P(O)(O)O[C@H]1[C@H](OP(=O)(O)O)[C@H](O)[C@H](O)[C@@H](O)[C@@H]1OP(=O)(O)O [Ins(1,5,6)P3]
[1]
  Kd: 29 µM
  HDAC3 activation relative to maximal Ins(1,4,5,6)P4-stimulated activity: 60%

## O=P(O)(O)O[C@H]1[C@H](OP(=O)(O)O)[C@@H](OP(=O)(O)O)[C@@H](O)[C@@H](O)[C@@H]1OP(=O)(O)O [Ins(3,4,5,6)P4]
[1]
  Kd: 41 µM

## O=P(O)(O)OC1C(O)C(O)C(O)C(OP(=O)(O)O)C1OP(=O)(O)O (centres unmarked) [Ins(4,5,6)P3]
[1]
  Kd: 45 µM
  HDAC3 activation relative to maximal Ins(1,4,5,6)P4-stimulated activity: 85%

## Nc1ncnc2c1ncn2[C@@H]1O[C@H](CO)[C@@H](O[C@H]2O[C@H](CO)[C@@H](OP(=O)(O)O)[C@H](OP(=O)(O)O)[C@H]2O)[C@H]1OP(=O)(O)O [adenophostin A]
[1]
  HDAC activity as percentage of maximal Ins(1,4,5,6)P4 activity: no activity; also recorded: neither activates HDAC3; also recorded: completely inert
[5]
  IC50 displacement of 2-FAM-Ins(1,3,4,5,6)P5: nor competes for inositol phosphate binding

## O=P(O)(O)Oc1ccc(OP(=O)(O)O)c(OP(=O)(O)O)c1OP(=O)(O)O [benzene 1,2,3,4-tetrakisphosphate]
[1]
  HDAC activity as percentage of maximal Ins(1,4,5,6)P4 activity: fails to substantially activate the complex

## H4K16Hx (histone H4 residues 12-18 with hydroxamic acid functionality at K16) (from UniProt P62805 13-19) (peptide)
[9]
  inhibition of the deacetylase activity of HDAC1:MTA1 (IC50): 0.336 µM

## MS-275
[4]
  enhancement of the binding of 2-FAM-Ins(1,3,4,5,6)P5 to the allosteric site by inhibitor: threefold enhancement

B1: MTA1 residues 162-354 (domain or fragment, UniProt Q13330 162-354, looked up)
chain: ADKGEIRVGNRYQADITDLLKEGEEDGRDQSRLETQVWEAHNPLTDKQIDQFLVVARSVGTFARALDCSSSVRQPSLHMSAAAASRDITLFHAMDTLHKNIYDISKAISALVPQGGPVLCRDEMEEWSASEANLFEEALEKYGKDFTDIQQDFLPWKSLTSIIEYYYMWKTTDRYVQQKRLKAAEAESKLKQV
notes: MTA1, residues 162-354, cloned into pcDNA3 with a FLAG tag and TEV protease cleavage site; The complex was eluted from the FLAG resin with TEV protease; source: HEK293F, co-transfected with HDAC1, purified as the complex (FLAG resin, TEV elution, gel filtration)
[10]
  binding result: binds
